According to PMC12040169 (PLOS Biology, 2025):

experiment: in vitro; details: human, hela cells, % viability

Structure (SMILES)	viability at 28.5 h, 10 µM [%]
COCCCN(Cc1ccc(F)c(F)c1)Cc1ccccn1 [CBK282961]	90.7
CCC(=O)Nc1nc2c(OC)ccc(C)c2s1 [CBK287616]	110
Cc1cc(-c2cn3ccnc3c(N3CCOCC3)n2)cc(C)c1O [CBK066691]	97.4
COCCN1CC[C@@H]2[C@@H](C/C=C/Cc3ccccc3OCC(=O)N2C)C1 [CBK292134]	98
CC(=O)Nc1ccc(S(=O)(=O)N2CCN(c3ccc([N+](=O)[O-])c(NC4CC4)c3)CC2)cc1 [CBK264439]	97.3
O=C(CCCOc1ccccc1)Nc1ccc(N2CCNCC2)nc1 [CBK028270T]	98.2
N#C/C(=C\c1ccc(OCC(=O)c2ccccc2)cc1)c1nc(-c2cccs2)cs1 [CBK266765]	95.3
O=C(CSc1nc2cccnc2[nH]1)Nc1cc(Cl)ccc1Cl [CBK264644]	101
O=C(NC[C@H]1CC[C@H](C(=O)O)CC1)c1cc2ccccc2[nH]1 [CBK287069]	105
CCOc1cc(C)c(C(C)C)cc1S(=O)(=O)NCc1ccccn1 [CBK268080]	104
Cc1ccc(S(=O)(=O)N(CCC#N)CCN2CCCC2)cc1 [CBK028055]	119
CN(c1nc(-c2cccnc2)cn2ccnc12)C1CCCCC1 [CBK093609]	87
CC(C)c1ccc(/C=C/C(=O)NCc2ccc(C#N)cc2)cc1 [CBK149642]	91
CC(C)(N)C(=O)N1CC(C(=O)NCCN(Cc2ccccc2)S(C)(=O)=O)C(c2ccccc2)C1 (stereo not shown) [CBK014706T]	93.3
COc1ccccc1NC(=O)CSCc1nc2ccccc2[nH]1 [CBK268385]	105
O=C(O)C1C2CCC(O2)C1C(=O)Nc1cnn(Cc2ccccc2)c1 (stereo not shown) [CBK286849]	96
COC(=O)c1ccccc1N1C(=O)c2cccc([N+](=O)[O-])c2C1=O [CBK115382]	95.7
O=C(NCCCc1ccccn1)c1ccnc2ccc(Cl)cc12 [CBK282618]	92.4
CCOc1cccc2sc(NC(=O)CC)nc12 [CBK287307]	86.5
Cc1cccc(NC(=O)C(Cc2ccccc2)C(=O)Nc2cccc(C)c2)c1 [CBK266899]	91.9
N#CCSC1=CC(=O)CC(c2ccccc2)S1 (stereo not shown) [CBK008460]	92.1
NS(=O)(=O)c1ccc(NC2=NC(=O)C(CC(=O)Nc3ccc(Br)cc3)S2)cc1 (stereo not shown) [CBK266616]	117

Structure (SMILES)	viability at 28.5 h, 10 µM [%]
COc1ccc2c(CC(=O)Nc3sccc3C(N)=O)coc2c1 [CBK295137]	101
O=C(OCCC1SC(NC2CC3C=CC2C3)=NC1=O)c1cc(F)ccc1F (stereo not shown) [CBK200059T]	92.2
Cc1nnc(S)n(Cc2ccc(F)cc2)c1=O [CBK288502]	106
CC(=O)c1ccc(-c2cnc(N)c(N3CCN(C)CC3)n2)s1 [CBK063432]	94.4
CC(c1ccc2c(c1)OCO2)c1cc2c(cc1OCCO)OCO2 (stereo not shown) [CBK200110]	98.9
CN1CCC[C@H]1C(=O)N1CCN(c2ncccn2)CC1 [CBK144528]	93.4
COc1ccc(OC)c(NC(=O)COc2ccc(C(C)C)cc2)c1 [CBK263498]	114
CCOC(=O)Cc1csc(NS(=O)(=O)c2ccc(Br)cc2C)n1 [CBK200027]	96.2
COCc1ccc(C(=O)N2CCN3C(=O)CCC32C)o1 (stereo not shown) [CBK282091]	104
CC(=O)N[C@H]1CO[C@H]2[C@@H]1OC[C@H]2OC(=O)Nc1ccc(Oc2ccccc2)cc1 [CBK289470]	113
COc1ccc(-n2c(Cc3ccccc3)nnc2SCC(=O)c2ccccc2)cc1 [CBK265989]	105
O=C(CCn1c(C(F)F)cc2cccnc21)N1CCCCCC1 [CBK284983]	96.9
Oc1cc2cccnc2nc1-c1ccc(OCc2ccccc2)c(F)c1 [CBK073708]	91.2
Nc1c(Cc2c(Cl)cccc2Cl)c(=O)n2n1CCC2 [CBK088948]	98.9
O=C(NCc1ccc2c(c1)OCO2)c1cncc(-c2ccc(C(=O)N3CCOCC3)cc2)c1 [CBK158614]	108
COc1ccccc1CN(Cc1cccnc1)C(=O)CCN1CCCO1 [CBK306959]	98.1
NS(=O)(=O)c1ccc(NC(=O)c2cc([N+](=O)[O-])ccc2N2CCOCC2)cc1 [CBK268972]	101
CC1CC(NC(=S)NCc2csc3ccccc23)CC(C)(C)C1 (stereo not shown) [CBK013824]	90.9
CNC(=O)c1cc2ncc(C(F)(F)F)cc2s1 [CBK089882]	93.1
CC1CN(C(=O)c2ncoc2-c2ccc(F)cc2)CC(C)O1 (stereo not shown) [CBK282379]	90
C[S+]([O-])CCNC(=O)c1cnn(-c2ccc(F)cc2)c1 (stereo not shown) [CBK283245]	89.1
O=S(=O)(c1ccccc1)N(CC(F)(F)F)c1ccc(C(O)(C(F)(F)F)C(F)(F)F)cc1 [CBK024768]	121

Structure (SMILES)	viability at 28.5 h, 10 µM [%]
COc1cc(/C=C(\C#N)c2nn(-c3ccccc3)c(N)c2C#N)ccc1Oc1ccc(C(F)(F)F)cc1[N+](=O)[O-] [CBK262484]	92.7
O=C(O)CC1SC(Nc2cc(C(F)(F)F)cc(C(F)(F)F)c2)=NC1=O (stereo not shown) [CBK059095]	89.8
Cc1ccc(CS(=O)(=O)N2CCN(CCO)C(C)C2)c(F)c1 (stereo not shown) [CBK304702]	105
COc1ccc(C(=O)OC(C)(C)C)c(-c2nccnc2N2CCCN(C)CC2)c1 [CBK037360]	103
CC(=O)Nc1cccc(-c2cn3ccnc3c(N[C@@H](CO)C(C)C)n2)c1 [CBK036605]	106
Fc1ccc(C2CCc3n[nH]cc3C2)cc1 (stereo not shown) [CBK015957C]	92
Cc1nc(CN2CCCC3(CCN(C(=O)c4cc(F)c(F)cc4F)C3)C2)cs1 (stereo not shown) [CBK132026]	119
Cc1ccc(S(=O)(=O)c2cccc(S(=O)(=O)N3CCCCC3)c2)cc1S(=O)(=O)N1CCCCC1 [CBK262207]	105
COC(=O)N1CCC(C(=O)NC(c2ccccc2)c2nc(OC)cc(OC)n2)CC1 (stereo not shown) [CBK059651]	90.6
CCN(CC)C(=O)Cn1nc(C)n2c(cc3sc(C)cc32)c1=O [CBK284064]	96.1
CC(SCc1ccccc1)C(=O)NCC1CCN(c2ccccc2)C1 (stereo not shown) [CBK298329]	89.5
O=C1CNC(=O)C2(C/C=C/C[C@H]3COCC[C@H]3N1)CCN(C(=O)Cc1cccnc1)CC2 [CBK292068]	103
Nc1ncc(-c2ccncc2)nc1NC1CCCCC1 [CBK063604]	80.9
CCC(=O)NC(NC(=S)Nc1cccc2cccnc12)C(Cl)(Cl)Cl (stereo not shown) [CBK261027]	96.1
CN1CCc2c(c(NCC3CCCO3)nc3[nH]nc(N)c23)C1 (stereo not shown) [CBK287955]	103
O=C1NCC(C2CCN(Cc3ccccc3)CC2)Oc2ccccc21 (stereo not shown) [CBK282314]	85.9
Cc1ccc2[nH]c(SC(C)C(=O)N3CCOCC3)nc2c1 (stereo not shown) [CBK306187]	96
CC(=O)N[C@H]1CC[C@]2(C)CCC([C@H](C)C(=O)N(C)Cc3ccccc3)[C@H](O)[C@H]2[C@@H]1C (stereo partly shown) [CBK289435]	110
CN1CCN(CCCCOc2ccc(Cc3ccccc3)cc2)CC1 [CBK269692C]	91.6
O=c1[nH]c2cc3nn[nH]c3cc2[nH]1 [CBK018154]	99.9
O=C(Nc1ccc(N2CCN(Cc3ccccc3F)CC2)cc1)c1cc2ccccc2o1 [CBK267210]	87.4
O=S(=O)(NC1CCN(Cc2ccccc2)CC1)c1ccc(-c2ccon2)s1 [CBK062038]	93.5

Structure (SMILES)	viability at 28.5 h, 10 µM [%]
O=C(NCC(=O)N(c1cccc(C(F)(F)F)c1)C(C(=O)NCc1ccco1)c1ccccc1F)c1ccco1 (stereo not shown) [CBK084740]	96
C(=N\Nc1nc(-c2ccccc2)cs1)/c1ccccc1 [CBK261327]	101
O=C(Nc1cccnc1)C1CCN(S(=O)(=O)c2ccc(Oc3ccccc3)cc2)CC1 [CBK269621]	81.8
CC1(C)OC(N2CCN(Cc3ccccc3)CC2)=Nc2ccccc21 [CBK023933C]	90.9
c1cncc(-c2cncc(NCc3ccc4c(c3)OCO4)n2)c1 [CBK065313]	94.6
C=Cn1ncc(CN(Cc2ccc(C)o2)CC2CCCO2)c1C (stereo not shown) [CBK283292]	101
O=c1c(Cl)c(O)c2ccccc2n1Cc1ccccc1 [CBK291164]	91.2
CCOC(=O)N1CCC(NS(=O)(=O)c2cc(Cl)sc2Cl)CC1 [CBK045462]	86.7
Nc1ncc(-c2ccco2)nc1N1CCC(C(=O)O)CC1 [CBK063440]	87
COc1ccc(C(=O)N2CC[C@H]3CC(=O)N(CCNC(C)=O)CC[C@H]3C2)cc1 [CBK288784]	78.8
CCOc1ccc(-c2csc(NC(=O)CC)n2)cc1 [CBK287764]	92.5
O=C1c2ccccc2C(=O)N1Cc1nc2ccccc2c(=O)n1CCCN1CCOCC1 [CBK268463]	96.1
Cc1ccnn1CCC(=O)NC1(c2ccccc2F)CCCC1 [CBK283691]	81.7
Fc1c(F)c(Oc2ccccc2Cl)c(F)c(F)c1/C=C/CN1CCOCC1 [CBK269318C]	96.7
CCc1cn(C[C@H](NC(=O)C2CCCC2)C(=O)O)c(=O)[nH]c1=O [CBK289664]	106
Cc1ccc(CNC(=O)OCc2cccnc2C)o1 [CBK200131]	99
COCCNc1cc(-c2ccc(NC(C)=O)cc2)ncn1 [CBK090799]	97.8
O=C(COc1ccc(S(=O)(=O)NC2CCCCC2)cc1)N1CCN(c2cccc(Cl)c2)CC1 [CBK265948]	90.6
CN(C)S(=O)(=O)NCc1ccc2c(c1)OCO2 [CBK264364]	108
Cc1oc2nc(CSc3ccc4ccccc4c3)[nH]c(=O)c2c1C(=O)O [CBK296645]	92.4

same assay, conditions: human, hela cells, % viability, bulk resorufin, single well

Structure (SMILES)	viability at 28.5 h, 10 µM [%]
CN1C(=O)C(=CNCCN2CCN(C(=S)Nc3ccccc3)CC2)C(=O)N(C)C1=O [CBK262858]	97.5
FC(F)(F)c1ccc(COc2cccc(-c3ccc4c(c3)COC3(CCNCC3)O4)c2)cc1 [CBK105868]	83.7
